Values joined by “and” are separate entries in the source; they are usually repeats but may differ in a detail not shown here. Equal values may be shown once. Toxic doses and inconclusive results are not listed.
System: BDF1 mice, P388 leukemia ip, median survival T/C
Assay: NCI In Vivo Anticancer Drug Screen. Data for tumor model P388 Leukemia (intraperitoneal) in B6D2F1 (BDF1) mice
Conditions: endpoint: median survival time, higher = longer survival
Outline: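 Each value expresses how treatment altered survival: treated-mouse outcome over vehicle-mouse outcome, both groups bearing the transplanted tumour.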

[1] = dose: 12.5 mg/kg/injection, schedule: Q01DX009 (ip), vehicle: saline with Tween-80
[2] = dose: 25.0 mg/kg/injection, schedule: Q01DX009 (ip), vehicle: saline with Tween-80
[3] = dose: 50.0 mg/kg/injection, schedule: Q01DX009 (ip), vehicle: saline with Tween-80
[4] = dose: 100.0 mg/kg/injection, schedule: Q01DX009 (ip), vehicle: saline with Tween-80
[5] = dose: 100.0 mg/kg/injection, schedule: Q01DX009 (ip), vehicle: Klucel (hydroxypropylcellulose) (HPC)
[6] = dose: 100.0 mg/kg/injection, schedule: Q04DX003 (ip), vehicle: Klucel (hydroxypropylcellulose) (HPC)
[7] = dose: 200.0 mg/kg/injection, schedule: Q01DX009 (ip), vehicle: Klucel (hydroxypropylcellulose) (HPC)
[8] = dose: 200.0 mg/kg/injection, schedule: Q04DX003 (ip), vehicle: Klucel (hydroxypropylcellulose) (HPC)
[9] = dose: 400.0 mg/kg/injection, schedule: Q01DX009 (ip), vehicle: Klucel (hydroxypropylcellulose) (HPC)
[10] = dose: 400.0 mg/kg/injection, schedule: Q04DX003 (ip), vehicle: Klucel (hydroxypropylcellulose) (HPC)

Structure (SMILES): NCCS(=O)(=O)O
- T/C (dose: 12.5 mg/kg/injection, schedule: Q01DX009 (ip), vehicle: saline): 90 % of control and 100 % of control
- T/C (dose: 17.5 mg/kg/injection, schedule: Q01DX009 (ip), vehicle: saline): 123 % of control
- T/C (dose: 25.0 mg/kg/injection, schedule: Q01DX009 (ip), vehicle: saline): 110 % of control
- T/C (dose: 35.0 mg/kg/injection, schedule: Q01DX009 (ip), vehicle: saline): 123 % of control
- T/C (dose: 50.0 mg/kg/injection, schedule: Q01DX009 (ip), vehicle: saline): 100 % of control (2×) and 113 % of control
- T/C (dose: 70.0 mg/kg/injection, schedule: Q01DX009 (ip), vehicle: saline): 107 % of control
- T/C (dose: 100.0 mg/kg/injection, schedule: Q01DX009 (ip), vehicle: saline): 86 % of control and 94 % of control
- T/C (dose: 200.0 mg/kg/injection, schedule: Q01DX009 (ip), vehicle: saline): 100 % of control
- T/C (dose: 400.0 mg/kg/injection, schedule: Q01DX009 (ip), vehicle: saline): 95 % of control and 105 % of control

Structure (SMILES): Oc1cc(CN2CCCC2)c(O)cc1CN1CCCC1
- T/C [1]: 111 % of control
- T/C [2]: 106 % of control
- T/C [3]: 111 % of control
- T/C [4]: 122 % of control

Structure (SMILES): O=C(NCCCl)NC1c2ccccc2CCc2ccccc21
- T/C (dose: 50.0 mg/kg/injection, schedule: Q01DX009 (ip), vehicle: Klucel (hydroxypropylcellulose) (HPC)): 105 % of control
- T/C [5]: 105 % of control
- T/C [6]: 95 % of control
- T/C [7]: 100 % of control
- T/C [8]: 90 % of control

Structure (SMILES): Cc1ccc2c(Nc3ccc(NS(C)(=O)=O)cc3)c3ccccc3nc2c1C
- T/C (dose: 1.78 mg/kg/injection, schedule: Q01DX009 (ip), vehicle: saline with Tween-80): 156 % of control
- T/C (dose: 4.0 mg/kg/injection, schedule: Q01DX009 (ip), vehicle: saline with Tween-80): 167 % of control
- T/C (dose: 5.56 mg/kg/injection, schedule: Q01DX009 (ip), vehicle: saline with Tween-80): 196 % of control
- T/C (dose: 6.0 mg/kg/injection, schedule: Q01DX009 (ip), vehicle: saline with Tween-80): 187 % of control
- T/C (dose: 6.25 mg/kg/injection, schedule: Q01DX009 (ip), vehicle: saline with Tween-80): 185 % of control
- T/C (dose: 8.33 mg/kg/injection, schedule: Q01DX009 (ip), vehicle: saline with Tween-80): 186 % of control
- T/C (dose: 8.8 mg/kg/injection, schedule: Q04DX003 (ip), vehicle: saline with Tween-80): 118 % of control
- T/C [1]: 233 % of control and 247 % of control
- T/C (dose: 13.2 mg/kg/injection, schedule: Q04DX003 (ip), vehicle: saline with Tween-80): 154 % of control
- T/C (dose: 18.7 mg/kg/injection, schedule: Q01DX009 (ip), vehicle: saline with Tween-80): 288 % of control
- T/C (dose: 20.0 mg/kg/injection, schedule: Q01DX009 (ip), vehicle: other): 219 % of control
- T/C (dose: 20.0 mg/kg/injection, schedule: Q04DX003 (ip), vehicle: saline with Tween-80): 168 % of control
- T/C (dose: 22.0 mg/kg/injection, schedule: Q04DX003 (ip), vehicle: saline with Tween-80): 186 % of control
- T/C [2]: 114 % of control
- T/C (dose: 30.0 mg/kg/injection, schedule: Q04DX003 (ip), vehicle: saline with Tween-80): 177 % of control
- T/C (dose: 33.0 mg/kg/injection, schedule: Q04DX003 (ip), vehicle: saline with Tween-80): 227 % of control
- T/C (dose: 50.0 mg/kg/injection, schedule: Q04DX003 (ip), vehicle: saline with Tween-80): 231 % of control
- T/C (dose: 75.0 mg/kg/injection, schedule: Q04DX003 (ip), vehicle: saline with Tween-80): 218 % of control
- T/C (dose: 100.0 mg/kg/injection, schedule: Q04DX003 (ip), vehicle: saline with Tween-80): 259 % of control
- T/C (dose: 200.0 mg/kg/injection, schedule: Q04DX003 (ip), vehicle: saline with Tween-80): 272 % of control

Structure (SMILES): CC(C)CCCC(C)C1CCC2C3CC=C4CC([Se][As](C)C)CCC4(C)C3CCC12C (configuration not stated)
- T/C [3]: 118 % of control
- T/C [4]: 111 % of control

Structure (SMILES): COC(=O)CCCCC(=O)OCC#CC#CCOC(=O)CCCCC(=O)OC
- T/C [5]: 104 % of control
- T/C [6]: 104 % of control
- T/C [7]: 104 % of control
- T/C [8]: 104 % of control
- T/C [9]: 109 % of control
- T/C [10]: 100 % of control

Structure (SMILES): CC1(CBr)Oc2ccccc2O1
- T/C [5]: 104 % of control
- T/C [6]: 100 % of control
- T/C [7]: 108 % of control
- T/C [8]: 95 % of control
- T/C [9]: 116 % of control
- T/C [10]: 108 % of control
